In the OPERA property sets (Mansouri et al. 2018):

Conditions: not given

Structure (SMILES)	melting point	log10 vapour pressure (mmHg)	boiling point	ready biodegradability	log10 Henry constant (atm·m³/mol)	log10 Koa	log10 Koc (L/kg)	log10 biodegradation half-life (days)
O=c1[nH]c2ccccc2c(-c2ccccc2)c1O	268 °C	–	–	–	–	–	–	–
CCNP(=S)(OC)O/C(C)=C/C(=O)OC(C)C (stereo unspecified)	–	-4.84	–	–	–	–	–	–
Clc1ccc(Cc2ccccc2)cc1	7.5 °C	–	299 °C	–	–	–	–	–
CCCCCCCCOC(=O)CCCC	-42.3 °C	–	262 °C	–	–	–	–	–
FC(Cl)=C(F)Cl	-130 °C	2.95	21.1 °C	–	–	–	–	–
c1ccc(-c2ccncc2)cc1	77.5 °C	–	281 °C	–	–	–	–	–
CCCCCCCCCCCCCS	–	-3.16	291 °C	–	–	–	–	–
O=C1CN=C(c2ccccc2)c2cc([N+](=O)[O-])ccc2N1	225 °C	–	–	–	–	–	–	–
CCOC(=O)C=CCC(=O)OCC	–	–	237 °C	–	–	–	–	–
O=C(NNc1ccccc1)NNc1ccccc1	170 °C	–	–	–	–	–	–	–
C=C(CC(=O)O)C(=O)O	175 °C	–	–	readily biodegradable	–	–	–	–
Cc1ccsc1	-69 °C	1.35	116 °C	not readily biodegradable	–	–	–	–
C1CN(SSN2CCOCC2)CCO1	124 °C	–	–	not readily biodegradable	–	–	–	–
O=C1C=CC(=O)c2c(O)ccc(O)c21	232 °C	–	–	–	–	–	–	–
C=C(C)Cl	-137 °C	2.91	22.6 °C	–	–	–	–	–
CC(C)(O)C#CC(C)(C)O	95 °C	–	205 °C	–	–	–	–	–
CC(=O)c1ccccc1C(=O)O	114 °C	–	–	–	–	–	–	–
CC1=CCC(=C(C)C)CC1	–	-0.129	186 °C	readily biodegradable	-1.58	–	–	–
CCCCc1ccccc1O	-20 °C	-1.99	235 °C	–	–	–	–	–
Clc1cccc(Oc2ccc(Cl)cc2Cl)c1	–	-3.74	–	–	–	–	–	–
Clc1cc(Cl)c(Cl)c(Cl)c1	54.5 °C	-1.26	–	–	-2.8	5.55	3.2	–
CCCCC(=O)C(C)C	–	–	158 °C	–	–	–	–	–
C=C(C)C=O	-81 °C	2.19	68.4 °C	–	-3.63	–	–	–
Cc1nn(C)c(OCC(=O)c2ccccc2)c1C(=O)c1ccc(Cl)cc1Cl	112 °C	-6.44	–	–	–	–	–	–
O=CCCCCC=O	-8 °C	–	–	–	–	–	–	–

Structure (SMILES)	melting point	log10 vapour pressure (mmHg)	boiling point	ready biodegradability	log10 Henry constant (atm·m³/mol)	log10 Koa	log10 Koc (L/kg)	log10 biodegradation half-life (days)
Clc1ccc(-c2c(Cl)c(Cl)cc(Cl)c2Cl)c(Cl)c1	–	–	–	–	-4.29	–	–	–
C/C(=C\C(=O)O)C1CCCCC1	85.5 °C	–	–	–	–	–	–	–
ClC1(Cl)CCCCC1	-47 °C	–	171 °C	–	–	–	–	–
CC(C)(N)Cc1ccccc1Cl	–	–	–	not readily biodegradable	–	–	–	–
c1ccc(COc2ccc3[nH]ccc3c2)cc1	102 °C	–	–	–	–	–	–	–
CCC=C(C)C=C(C)C	–	–	138 °C	–	–	–	–	–
O=Cc1c(O)ccc2ccccc12	83 °C	–	–	readily biodegradable	–	–	–	–
CCCCNC(=O)c1ccc(Cl)cc1O	91.5 °C	–	–	–	–	–	–	–
COC1CC1	-119 °C	–	44.7 °C	–	–	–	–	–
CC(C)=CCCC(C)CCO (stereo unspecified)	–	-1.36	–	–	–	–	–	–
CN1CCc2cc3c(cc2C(=O)Cc2ccc4c(c2C1)OCO4)OCO3	208 °C	–	–	–	–	–	–	–
CCCCCCCCCC(=O)OC	-18 °C	-1.43	224 °C	–	–	–	–	–
O=C(O)c1cccc(S(=O)(=O)O)c1	–	–	–	not readily biodegradable	–	–	–	–
Cc1nc(C)c(C)nc1C	85 °C	–	190 °C	–	–	–	–	–
O=C(Nc1ccc(Br)cc1)c1c(O)cccc1O	229 °C	–	–	–	–	–	–	–
COc1cc(O)c2c(=O)c(-c3ccc(O)cc3)coc2c1	240 °C	–	–	–	–	–	–	–
CCSCCSP(=S)(OC)OC	–	-4.77	–	–	–	–	–	–
CCCC(=NOCC)C1=C(O)CC(C2CCCSC2)CC1=O (stereo unspecified)	41 °C	-7.12	–	–	–	–	–	–
CCC(C)C1(CC)C(=O)NC(=S)NC1=O (stereo unspecified)	169 °C	–	–	–	–	–	–	–
CCCCOC(=O)c1ccccc1C(=O)OCc1ccccc1	–	-5.08	370 °C	readily biodegradable	–	–	3.72	–
CC[N+](CC)(CC)CCC(O)(c1ccccc1)C1CCCCC1.[I-] (stereo unspecified)	182 °C	–	–	–	–	–	–	–
CCCC(C)=O	-76.9 °C	1.55	102 °C	–	-4.08	3.19	–	–
CCNc1nc(NC(C)CC)nc(OC)n1 (stereo unspecified)	87 °C	-5.14	–	–	–	–	2.78	–
C=CCCCCCCCCCCCCCCC	11.5 °C	-3.34	300 °C	–	–	–	–	–
C=C(C)c1ccccc1	-23.2 °C	0.279	165 °C	not readily biodegradable	–	–	–	–

Structure (SMILES)	melting point	log10 vapour pressure (mmHg)	boiling point	ready biodegradability	log10 Henry constant (atm·m³/mol)	log10 Koa	log10 Koc (L/kg)	log10 biodegradation half-life (days)
c1ccc(-c2cccc(-c3ccccn3)n2)nc1	90 °C	–	–	–	–	–	–	–
O=C(O)c1cc(Cl)cc(Cl)c1	188 °C	–	–	–	–	–	–	–
CCC#CC(C)C	-117 °C	–	95.2 °C	–	–	–	–	–
COC(=O)C(C)Cl (stereo unspecified)	–	–	132 °C	readily biodegradable	–	–	–	–
CNC	–	3.18	6.8 °C	readily biodegradable	-4.75	2	–	–
CCCCCCCCCCCCCCCCCCCC(=O)OCC	50 °C	-7.72	–	–	–	–	–	–
O=C1c2c(O)cccc2C(=O)C2C(O)=CC=CC12 (stereo unspecified)	280 °C	–	–	–	–	–	–	–
O=c1oc2cc(O)ccc2s1	160 °C	–	–	–	–	–	–	–
CCC(C)ON=O (stereo unspecified)	–	–	68.5 °C	–	–	–	–	–
CC(C)C1=CC[C@H]2C(=C1)CC[C@@H]1[C@]2(C)CCC[C@@]1(C)C(=O)O	150 °C	–	–	–	–	–	–	–
Cc1cccc(Cl)n1	–	–	184 °C	–	–	–	–	–
CC=Cc1ccccc1	-28.2 °C	–	177 °C	–	–	–	–	–
Cn1c2ccccc2c2ccccc21	89.3 °C	–	–	–	–	–	–	–
C/C=C(/C)C(=O)O[C@H]1CCN2CC=C(COC(=O)[C@](O)([C@H](C)OC)C(C)(C)O)[C@H]12	95 °C	–	–	–	–	–	–	–
CCCCCC(=O)O[C@]1(C(C)=O)CC[C@H]2[C@@H]3CCC4=CC(=O)CC[C@@H]4[C@H]3CC[C@@]21C	124 °C	–	–	–	–	–	–	–
CC(C)(C)c1ccc(Cl)cc1	–	–	213 °C	–	–	–	–	–
CCCCOC(N)=O	53 °C	–	–	–	–	–	–	–
Clc1ccc(Cc2ccc(Cl)cc2)cc1	55.5 °C	–	–	–	–	–	–	–
Clc1ccc(-c2c(Cl)cccc2Cl)cc1	–	–	–	–	-3.7	7.72	–	–
CC(C)OC(=O)[C@@H](C)N(C(=O)c1ccccc1)c1ccc(F)c(Cl)c1	–	-6.2	–	–	–	–	–	–
CCC(C)(C)c1cc(O)c(C(C)(C)CC)cc1O	180 °C	–	–	–	–	–	–	–
CCCCCCN(CCCCCC)C(=O)COC(=O)c1ccccc1	162 °C	–	–	–	–	–	–	–
NC(=S)C(N)=S	–	-5.78	–	–	–	–	–	–
CCOC(=O)CC(=O)CC(=O)OCC	–	–	250 °C	–	–	–	–	–
O=c1c(O)c(O)c(=O)c1=O	150 °C	–	–	–	–	–	–	–

Structure (SMILES)	melting point	log10 vapour pressure (mmHg)	boiling point	ready biodegradability	log10 Henry constant (atm·m³/mol)	log10 Koa	log10 Koc (L/kg)	log10 biodegradation half-life (days)
BrCCI	28 °C	–	163 °C	–	–	–	–	–
CC12CCC(CC1=O)C2(C)C (stereo unspecified)	179 °C	-0.665	206 °C	readily biodegradable	–	–	–	–
CC(F)=C(Cl)Cl	–	–	78 °C	–	–	–	–	–
Nc1ccccc1Nc1ccccc1	79.5 °C	–	313 °C	–	–	–	–	–
COc1ccc(C(=O)c2csc(S(N)(=O)=O)c2)cc1	174 °C	–	–	–	–	–	–	–
CN(C)[C@@H]1C(O)=C(C(N)=O)C(=O)[C@@]2(O)C(O)=C3C(=O)c4c(O)ccc(Cl)c4[C@@](C)(O)[C@H]3C[C@@H]12	168 °C	–	–	–	–	–	–	–
CCCCCCCCCCCC1=C(O)C(=O)C=C(O)C1=O	142 °C	–	–	–	–	–	–	–
CCSCC	-104 °C	1.78	92.1 °C	–	-2.77	–	–	–
N#CCCN(CCO)c1ccc(N=Nc2ccc([N+](=O)[O-])cc2Cl)cc1	157 °C	–	–	–	–	–	–	–
COC(=O)C(Cl)(Cl)Cl	-17.5 °C	–	154 °C	–	–	–	–	–
O=C(Cl)CCl	-22 °C	1.4	106 °C	–	–	–	–	–
CCc1cccc(C)c1N(COC(C)C)C(=O)CCl	21.6 °C	-4.52	–	–	–	–	–	–
Cc1ccccc1C(=O)c1ccccc1	–	–	308 °C	–	–	–	–	–
CC(C)=NOCCOC(=O)[C@@H](C)Oc1ccc(Oc2cnc3cc(Cl)ccc3n2)cc1	66.3 °C	-11.5	–	–	–	–	–	–
Brc1ccc(-c2ccc(Br)cc2)cc1	164 °C	–	358 °C	not readily biodegradable	–	–	–	–
CCC(=O)c1ccc2c(c1)N(CCCN(C)C)c1ccccc1S2	69.5 °C	–	–	–	–	–	–	–
COC1=CC(=O)O[C@@H](/C=C/c2ccccc2)C1	106 °C	–	–	–	–	–	–	–
OCCCCCCCO	22.5 °C	–	262 °C	–	–	–	–	–
CC(=O)CCCC(C)C	–	–	167 °C	–	–	–	–	–
CC(=O)OC[C@]12C[C@H](OC(=O)CC(C)C)C(C)=C[C@H]1O[C@@H]1[C@H](O)[C@@H](OC(C)=O)[C@@]2(C)[C@]12CO2	152 °C	–	–	–	–	–	–	–
CC(Cc1ccc(O)c(O)c1)C(C)Cc1ccc(O)c(O)c1 (stereo unspecified)	186 °C	–	–	–	–	–	–	–
Oc1ccc2cccnc2c1	239 °C	–	–	–	–	–	–	–
Cc1ccc(C)o1	-62.8 °C	–	93.5 °C	–	–	–	–	–
CC(C)CCCC(C)CCCC(C)CCCCC(C)CCCC(C)CCCC(C)C (stereo unspecified)	-38 °C	–	350 °C	–	–	–	–	1.62
CCN(CC)C(=O)Nc1ccc(OCC(O)CNC(C)(C)C)c(C(C)=O)c1 (stereo unspecified)	111 °C	–	–	–	–	–	–	–

Structure (SMILES)	melting point	log10 vapour pressure (mmHg)	boiling point	ready biodegradability	log10 Henry constant (atm·m³/mol)	log10 Koa	log10 Koc (L/kg)	log10 biodegradation half-life (days)
CCOC(=O)CC(=O)c1ccc([N+](=O)[O-])cc1	72 °C	–	–	–	–	–	–	–
CCOP(=S)(OCC)Oc1cc(C)nc(C(C)C)n1	–	-4.05	–	not readily biodegradable	-6.95	–	2.75	–
CCBr	-119 °C	2.67	38.5 °C	not readily biodegradable	–	2.11	–	–
O=Cc1cccnc1	–	–	–	–	-6.82	–	–	–
O=C(O)CCCCc1ccccc1	57.5 °C	–	–	–	–	–	–	–
Cc1ccccc1[N+](=O)[O-]	-10 °C	-0.726	222 °C	not readily biodegradable	-4.9	–	–	–
CC(C)COC(=O)c1ccc(C(=O)OCC(C)C)cc1	55 °C	–	–	–	–	–	–	–
COc1ccccc1C=O	37.5 °C	–	244 °C	–	–	–	–	–
CN1Cc2c(N)cccc2C(c2ccccc2)C1 (stereo unspecified)	180 °C	–	–	–	–	–	–	–
CC/C=C/C=C/C=O	84.5 °C	–	–	–	–	–	–	–
O=Cc1cc(Br)cc(Br)c1O	86 °C	–	–	–	–	–	–	–
COc1ccc2[nH]cc(CCN)c2c1	122 °C	–	–	–	–	–	–	–
O=C(Cc1ccccc1)OCCc1ccccc1	26.5 °C	–	–	–	–	–	–	–
CC(C)C(C)(C)C(C)C	-102 °C	0.946	142 °C	–	–	–	–	–
CC(O)CCO (stereo unspecified)	–	-1.7	208 °C	–	–	–	–	–
N#CC1CC2C=CC1C2 (stereo unspecified)	13 °C	–	–	–	–	–	–	–
CCCCOCCOCCOCCCC	-60 °C	-1.58	256 °C	–	–	–	–	–
N#CCc1ccc([N+](=O)[O-])cc1	117 °C	–	–	–	–	–	–	–
CCOCCOc1ccccc1	–	–	230 °C	–	–	–	–	–
CC(C)(O)CCc1ccccc1	24.5 °C	–	–	–	–	–	–	–
CC(C)(C)SC(C)(C)C	-9 °C	–	149 °C	–	–	–	–	–

Same assay, conditions: fish

Structure (SMILES)	log10 BCF	log10 biotransformation half-life (days)
Cc1ccsc1	0.72	-1.27
Clc1cc(Cl)c(Cl)c(Cl)c1	3.59	–
CCCCOC(=O)c1ccccc1C(=O)OCc1ccccc1	1.21	-1.03
C=C(C)c1ccccc1	1.8	-0.71
Clc1cc(Cl)c(Cl)c(-c2cccc(Cl)c2Cl)c1	–	2.44
CC12CCCC1C1CCC3CCCCC3(C)C1CC2 (stereo unspecified)	–	1.67
Clc1ccc(-c2c(Cl)cccc2Cl)cc1	–	2.44
Brc1ccc(-c2ccc(Br)cc2)cc1	3.92	1.57
CCOP(=S)(OCC)Oc1cc(C)nc(C(C)C)n1	1.85	0.07
Cc1ccccc1[N+](=O)[O-]	1.26	-0.48
